The target in the experiment is T1, Angiotensin Converting Enzyme (Oryctolagus cuniculus, UniProt P12822).
T1 construct: The enzyme was isolated from rabbit lung and purified via calcium phosphate gel; from tissue; host or cells: rabbit lung
T1 sequence (P12822 34-1310): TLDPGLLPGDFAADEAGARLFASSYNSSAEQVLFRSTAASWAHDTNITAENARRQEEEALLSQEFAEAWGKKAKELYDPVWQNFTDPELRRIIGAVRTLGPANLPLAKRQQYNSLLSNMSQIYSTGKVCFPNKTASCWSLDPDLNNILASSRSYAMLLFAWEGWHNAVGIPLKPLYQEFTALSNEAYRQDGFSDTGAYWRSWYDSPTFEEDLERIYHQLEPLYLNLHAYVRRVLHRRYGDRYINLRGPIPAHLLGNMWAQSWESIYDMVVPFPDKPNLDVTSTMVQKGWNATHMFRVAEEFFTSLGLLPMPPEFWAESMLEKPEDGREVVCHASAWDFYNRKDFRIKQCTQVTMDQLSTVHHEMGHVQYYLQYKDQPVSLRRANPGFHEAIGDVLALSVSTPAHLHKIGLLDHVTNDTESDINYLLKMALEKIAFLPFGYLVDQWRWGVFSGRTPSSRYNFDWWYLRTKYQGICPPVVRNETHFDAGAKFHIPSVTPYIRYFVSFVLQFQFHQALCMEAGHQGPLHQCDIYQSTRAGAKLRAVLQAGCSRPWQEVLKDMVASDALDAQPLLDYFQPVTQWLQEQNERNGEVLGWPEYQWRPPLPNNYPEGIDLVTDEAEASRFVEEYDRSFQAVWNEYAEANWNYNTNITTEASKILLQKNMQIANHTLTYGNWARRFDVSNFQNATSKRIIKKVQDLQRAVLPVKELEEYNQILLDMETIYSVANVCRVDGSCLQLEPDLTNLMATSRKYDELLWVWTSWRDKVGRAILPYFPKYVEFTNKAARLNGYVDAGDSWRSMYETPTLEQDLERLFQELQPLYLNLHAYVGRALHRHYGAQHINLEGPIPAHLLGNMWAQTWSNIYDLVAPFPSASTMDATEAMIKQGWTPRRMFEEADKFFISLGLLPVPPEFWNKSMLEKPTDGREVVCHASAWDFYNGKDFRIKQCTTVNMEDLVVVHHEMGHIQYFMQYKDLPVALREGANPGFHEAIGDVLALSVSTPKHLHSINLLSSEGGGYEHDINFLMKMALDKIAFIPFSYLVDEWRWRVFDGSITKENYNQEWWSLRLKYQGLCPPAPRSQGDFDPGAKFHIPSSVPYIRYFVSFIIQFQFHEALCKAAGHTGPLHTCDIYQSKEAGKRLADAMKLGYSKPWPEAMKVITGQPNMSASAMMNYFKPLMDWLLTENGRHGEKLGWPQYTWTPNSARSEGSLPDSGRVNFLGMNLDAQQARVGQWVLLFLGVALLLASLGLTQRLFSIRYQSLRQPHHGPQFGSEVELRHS
Briefly: Inhibition of Angiotensin Converting Enzyme (fluorometric histidylleucine release from angiotensin I). Conditions: enzyme from rabbit lung; human angiotensin I substrate; pH 7.5; 30 minutes at 37° C; inhibitor range 10^-4 to 10^-9 M; read-out: Concentration giving 50% Inhibition of Conversion of Angiotensin I to Angiotensin II. The format is biochemical. The text has this:
The compounds are useful in the treatment of hypertension and congestive heart failure by virtue of their ability to inhibit angiotensin converting enzyme. […] Certain compounds of the present invention were examined as to their ability to inhibit angiotensin converting enzyme in the following test system.
ASSAY OF INHIBITORS OF ANGIOTENSIN CONVERTING ENZYME
The procedure for the assay of angiotensin I converting enzyme activity was essentially that described by Cheung and Cushman, Biochemica et Biophysica Acta, 293, 451-463 (1973). The enzyme was isolated from rabbit lung and purified via calcium phosphate gel, and DEAE-cellulose column chromatography. Human angiotensin I was employed as the substrate. The assay is dependent on the fluorometric measurement of the rate of release of the dipeptide histidylleucine from the substrate by the enzyme when the released dipeptide is reacted with o-phthalicdicarboxaldehyde. A standard curve is prepared with known quantities of histidylleucine.
Incubations were conducted at 37° C. in 13×100 mm. test tubes containing a final volume of 250 μl. The conditions of the assay employed were as follows: 100 μl. of 0.3 mM angiotensin I dissolved in saline-phosphate buffer (30 mM NaCl, 100 mM potassium phosphate, pH 7.5) and 50 μl. of saline-phosphate buffer (or test compound dissolved in the buffer) were allowed to stand at least three minutes at ambient temperature. The enzymic reaction was initiated by adding 100 μl. of enzyme solution containing 25 to 50 μg. protein/ml., determined by the Lowry method. The tubes were incubated for 30 minutes at 37° C. The reaction was terminated by adding 1.45 ml. of 300 mM NaOH followed with 100 μl. of 0.2 percent o-phthalicdicarboxaldehyde in methanol. After ten minutes, 200 μl. of 3M HCl were added. The final volume in the tubes was 2 ml. Fluorometric determinations (365 nm excitation and 500 nm emission) were made after 30 minutes but within 90 minutes after termination of the reaction.
The concentration of the inhibitors were adjusted so that a range of concentrations of 10^-4 to 10^-9 M was obtained in the reaction tubes. Inhibition was measured by the decrease in activity from that of control tubes without inhibitor. Activity was recorded as the molar concentration of inhibitor producing a 50 percent decrease in converting enzyme activity relative to the controls and is summarized in Table I.
Consider `C[C@@H](C(=O)O)N1CCC(C)(CS)C1=O` (stereo partly drawn) [Example 1, (αS)-3-(mercaptomethyl)-α,3-dimethyl-2-oxo-1-pyrrolidineacetic acid], for which the IC50 worked out at 1000 nM.

With `C[C@@H](C(=O)O)N1CC[C@](CS)(Cc2ccccc2)C1=O` [Example 3, (αS,3R)-3-(mercaptomethyl)-α-methyl-2-oxo-3-benzyl-1-pyrrolidineacetic acid], the IC50 is 5000 nM.

For `CCC1(CS)CCN([C@@H](C)C(=O)O)C1=O` (stereo partly drawn) [Example 2, (αS)-3-ethyl-3-(mercaptomethyl)-α-methyl-2-oxo-1-pyrrolidineacetic acid], the IC50 turned out to be 2000 nM.

Regarding `C[C@@H](C(=O)O)N1CC[C@@](CS)(Cc2ccccc2)C1=O` [Example 4, (S,S)-3-(mercaptomethyl)-α-methyl-2-oxo-3-benzyl-1-pyrrolidine-acetic acid], the IC50 was more than 100000 nM.
